Measured values as given in patent US6495376B1, “Methods and compositions for regulating protein-protein interactions” (Beth Israel Deaconess Medical Center, priority 1999, dated 2002).
pKd: −log10 of the molar value. Read-outs that look alike come from different tables or passages of the source. Values belong to the substance of their own block, whether it stands above or below them. Where no end group is shown, it is not given here. [ ]: non-standard residue; d: D form. pT = C[C@@H](OP(=O)(O)O)[C@H](N)C(=O)O; pS = N[C@@H](COP(=O)(O)O)C(=O)O

Experiments:
Pin1 = Pin1 (Homo sapiens, UniProt Q13526); experiment: ELISA peptide binding to Pin1; settings: for Binding (OD@405 nm), tau peptides: Pin1; for Binding (OD@405 nm), Amyloid Precursor Protein Peptide: protein not printed in these lines, text: Pin1 WW-domain
WFYSPFLE = experiment: Fluorescence anisotropy binding to fluorescein-labeled nonphosphorylated control peptide; settings: nonphosphorylated peptide
WFYpSPFLE (Pintide) = experiment: Fluorescence anisotropy (polarization) binding to fluorescein-labeled phosphorylated Pintide analogue; settings: for pKd: fluorescein labeled Pintide, high affinity pSer-binding site in the WW-domain, read-out: Kd for Pintide
From the text: To determine the affinity of Pin1, and its WW or PPIase domain for phosphopeptides, peptides were labeled with fluorescein and their interactions with Pin1 measured using quantitative fluorescence anisotrophy. To prevent nonspecific labeling, a Pintide analogue (WFYpSPFLE) SEQ ID NO: 9 was used, which binds Pin1 with a high affinity based on the peptide library screen as described by (Lu, K. P. et al., U.S. Ser. No. 60/058,164 (1997), the teachings of which are incorporated herein in their entirety.
(§1) Pintide and its nonphosphorylated counterpart were synthesized and incubated with GST-Pin1 or the GST-WW-domain of Pin1 in a binding buffer, using established procedures (Shen, M. et al., Genes & Dev 12:706 (1998)). After a 1 hr incubation, mitotic HeLa cell extracts were added and subjected to GST pull down experiments, followed by immunoblotting analysis using the MPM-2 antibody. To obtain semi-quantitative data, films of immunoblots were scanned at the region of 55 kDa, the major Pin1-binding protein, and data analyzed using ImageQuan (ScanJet II CX). The peptide binding constants were measured using a fluorescence polarization assay (Jiskoot, W. et al., Anal Biochem 196:421 (1991)). Peptides were fluorescein labeled at the N-terminus using the Fluorescein Amine Labeling Kit (Pan Vera Corp.) and purified by TLC according to the manufacturer's […]. To prevent nonspecific labeling, a Pintide analogue (WFYpSPFLE) SEQ ID NO: 8 and the nonphosphorylated control were used. Various concentrations of Pin1 and its mutant proteins were incubated with 0.1 μM of the labeled peptides in a binding buffer containing 50 mM HEPES, pH 7.4, 100 mM NaCl, 2% glycerol. Fluorescence polarization values were obtained using a Pan Vera Beacon 2000 system, as described by the manufacturer.

phosphorylated tau = experiment: GST-Pin1 pulldown of tau; assay type: binding; settings: AD brain extracts, PHFs or age-matched normal brain extracts
From the text: Pin1 binds and regulates the function of a defined subset of mitotic phosphoproteins by interacting with conserved phosphorylated Ser/Thr-Pro motifs that are also recognized by MPM-2, a mitosis-specific, phosphorylation-dependent monoclonal antibody (mAb) (Yaffe, M. B. et al., Science 278:1957-1960 (1997); Shen, M. et al., Genes Dev. 12:706-720 (1 998)). Tau is an MPM-2 antigen phosphorylated on multiple Ser/Thr-Pro motifs during mitosis (Illenberger, S. et al., Mol Biol Cell 9:1495-1512 (1998)). Experiments were undertaken to determine whether Pin1 binds tau. Tau isoform was either synthesized by in vitro transcription and translation in the presence of ^35S-Met or produced in bacteria as an N-terminal His-tagged protein, followed by purification using NTA-Ni columns (Yaffe, M. B. et al., Science 278:1957-1960 (1997); Shen, M. et al., Genes Dev. 12:706-720 (1998)). To generate interphase- and mitosis-specific phosphorylated form of tau, tau was incubated with Xenopus interphase and mitotic extracts, respectively (Shen, M. et al., Genes Dev. 12:706-720 (1998)). To prepare Cdc2 phosphorylated tau, purified recombinant tau was incubated with purified cyclin B/Cdc2 (UBI) for 6 to 12 hr at room temperature in a buffer containing 500 μM cold ATP, plus trace [^32P]-ATP in some experiments, (Vincent, I. et al., J Neurosci 17:3588-3598 (1997)).
Pin1 interactions with tau in AD brains were examined using a GST-Pin1 pulldown assay (Shen, M. et al., Genes Dev. 12:706-720 (1998)). Glutathione beads containing GST or GST-Pin1 were incubated with normal or AD brain extracts, or PHFs purified (Vincent, I. J. and Davies, P. Proc Natl Acad Sci USA 89:2878-2882 (1992)), and proteins associated with the beads were subjected to immunoblotting analysis using CP27, which recognizes all forms of tau. Recombinant and mutant Pin1 proteins were produced as N-terminal GST or His-tagged fusion proteins (Shen, M. et al., Genes Dev. 12:706-720 (1998)). PHFs were purified by immunoaffinity chromatography (Vincent, I. J. and Davies, P. Proc Natl Acad Sci USA 89:2878-2882 (1992)).
To determine whether Pin1 interacts with pT231-tau, GST-Pin1 beads were used to isolate tau from AD brain extracts or PHFs and T231 phosphorylation detected using CP9. Tau isolated by Pin1 beads was strongly immunoreactive with CP9. […] Thus, Pin1 binds pT231-tau through its WW-domain.

[1] = test system: MPM-2 antigens (mitotic phosphoproteins) of mitotic HeLa cell extracts; experiment: GST pulldown from mitotic HeLa cell extracts, MPM-2 immunoblotting (phosphoprotein-binding activity); settings: for Phosphoprotein binding activity: GST-fusion proteins with mitotic extracts, MPM2 antibody; for binding to mitotic phosphoproteins / MPM-2 antigens (in words): mitotic HeLa cell extracts
Experimental: GST-fusion proteins containing the WW-domain, PPIase-domain or the entire Pin 1 protein were prepared and incubated with interphase (G1/S arrested; Control) or dividing (M phase) HeLa cell extracts using well-known procedures (Lu, K. P., et al., Nature 380:544 (1996); (Shen, M., et al., Genes & Devl. 12:706 (1998)). Briefly, HeLa cells were arrested at the G1/S boundary or mitosis by incubation with thymidine and aphidicolin or nocodazole for 16 h, respectively. The cells were lysed and supernatants incubated with 10 μl of agarose beads containing GST-Pin1; GST-WW-domain of Pin1; GST-PPIase domain of Pin1; or control GST for 2 h at 4° C. The phosphorylated precipitated proteins were washed 5 times in buffer containing 1% Triton X-100 before subjecting to immunoblotting analysis using MPM-2 antibody, as described previously (Yaffe, M. B. et al., Science 278:1957 (1997); Schukowski, et al., Biochemistry 37:5566 (1998); Shen, M. et al., Genes & Dev 12:706 (1998)). MPM-2 recognizes a subset of mitotic phosphoproteins including Pin1-binding proteins such as cdc25.
as §1
To examine the effect of Pin1 phosphorylation on Pin1 binding to ligands, Pin1 and Pin1 mutant proteins were incubated with the catalytic subunit of PKA and PKC (a mixture of α, β and γ, UBI) in a kinase reaction buffer containing 500 μM cold ATP at 30° C. for 15 min (Lu, K. P. et al., Anal. Biochem. 196:421 (1991)). The reactions were stopped by adding SDS sample buffer and reaction products separated on SDS-gels, followed by autoradiography. Pin1 proteins were isolated and used to bind MPM-2 antigens from mitotic extracts from HeLa cells, as previously described (Shen, M., et al., Genes & Dev 12:706 (1998)). Experiments were also performed with PKA and PKC, casein kinase, cyclin B/Cdc2 and SRPK1 kinases.

peptide substrate = experiment: PPIase activity assay with peptide substrate; assay type: biochemical; settings: relative to wild-type protein defined as 100%
Pin1 and its WW-domain = experiment: Peptide competition of Pin1 / WW-domain binding to MPM-2 antigens of mitotic extracts; design: species or system human; settings: for competition for phosphoprotein binding (in words): 0, 25, 50, 125, 250, 500 μM peptide
Experimental: To examine the ability of a phosphopeptide to compete with phosphoproteins for binding to the WW-domain, the Pin1 binding phosphopeptide Pintide (WFYpSPRLKK, SEQ ID NO: 13) (Lu, K. P. et al., U.S. Ser. No. 60/058,164 (1997)) was used in competition assays. A nonphosphorylated counterpart of Pintide ([…], SEQ ID NO: 14) (C-Pintide) was used as a control.
as §1

[2] = high affinity binding site, read-out: WFYpSPFLE Kd(μM) High affinity
[3] = low affinity binding site, read-out: WFYpSPFLE Kd(μM) Low affinity
[4] = competition with MPM2 antigens of mitotic extracts

Chain of Pin1 and its WW-domain (Q13526 1-54 limits assumed): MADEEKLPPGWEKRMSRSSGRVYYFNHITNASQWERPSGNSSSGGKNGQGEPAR
Chain of Pin1 (Q13526 whole entry): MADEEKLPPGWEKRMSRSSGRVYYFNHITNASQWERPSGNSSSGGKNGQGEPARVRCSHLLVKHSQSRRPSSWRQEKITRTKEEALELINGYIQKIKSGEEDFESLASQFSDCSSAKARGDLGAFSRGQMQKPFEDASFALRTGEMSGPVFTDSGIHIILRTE
Chain of phosphorylated tau (P10636 45-216 isoform P10636-2 limits assumed): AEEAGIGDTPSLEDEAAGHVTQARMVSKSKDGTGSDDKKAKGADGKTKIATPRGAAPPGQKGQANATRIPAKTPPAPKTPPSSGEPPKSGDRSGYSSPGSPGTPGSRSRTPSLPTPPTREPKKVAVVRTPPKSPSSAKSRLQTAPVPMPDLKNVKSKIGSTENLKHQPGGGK

Substance: GSLDNITHVPGGG (GSLDNI[pT]HVPGGG) [pT-361]
Binding (OD@405 nm), tau peptides (Pin1): 0.00 OD@405 nm

Substance: GST-Pin1: GST-fusion protein containing the entire Pin1 protein
WFYSPFLE Kd (WFYSPFLE): Not binding | Kd (WFYpSPFLE (Pintide); [2]): 1.2 µM | Kd (WFYpSPFLE (Pintide); [3]): 13 µM | binding to tau of brain extracts (phosphorylated tau): bound tau present in AD brain extracts or PHFs

Substance: KEVDAAVTPEERHLS [T-668]
Binding (OD@405 nm), Amyloid Precursor Protein Peptide (Pin1): 0.00 OD@405 nm

Substance: KVAVVRTPPKSPS [T-231]
Binding (OD@405 nm), tau peptides (Pin1): 0.00 OD@405 nm

Substance: NVSSTGSIDMVDS (also: phosphoserine, place not given here) [pS-416]
Binding (OD@405 nm), tau peptides (Pin1): 0.00 OD@405 nm

Substance: Pin1^R14A: Pin1 with substitution of Arg-14 with Ala
Phosphoprotein binding activity [1]: + (binding was detected) | binding to mitotic phosphoproteins / MPM-2 antigens (in words) [1]: did not appear to cause a significant change | pKd (WFYpSPFLE (Pintide)): 5.70 | Kd (WFYpSPFLE (Pintide); [2]): 2 µM | Kd (WFYpSPFLE (Pintide); [3]): 13.5 µM | PPlase Activity (%) (peptide substrate): 92%

Substance: Pin1^S16A: Pin1 with Ser-16 substituted with Ala
Phosphoprotein binding activity [1]: + (binding was detected) | binding to mitotic phosphoproteins / MPM-2 antigens (in words) [1]: interacted with all Pin1 ligands | effect of phosphorylation by PKA on interaction with MPM2 antigens ([1]; protein phosphorylated by PKA before binding): not affected by PKA phosphorylation | pKd (WFYpSPFLE (Pintide)): 5.92 | Kd (WFYpSPFLE (Pintide); [2]): 1.2 µM | Kd (WFYpSPFLE (Pintide); [3]): 10.5 µM | PPlase Activity (%) (peptide substrate): 96%

Substance: SIDMVDSPQLATL (also: phosphorylated Ser, place not given here) [pS-422]
Binding (OD@405 nm), tau peptides (Pin1): 0.00 OD@405 nm

Substance: TRIPAKTPPAPKT (also: phosphorylated Thr, place not given here) [pT-175]
Binding (OD@405 nm), tau peptides (Pin1): 0.00 OD@405 nm

Substance: VQSKIGSLDNITH (also: phosphoserine, place not given here) [pS-356]
Binding (OD@405 nm), tau peptides (Pin1): 0.00 OD@405 nm

Substance: WFYpSPRLKK (WFY[pS]PRLKK) [Pintide]
competition for phosphoprotein binding (in words) (Pin1 and its WW-domain): significantly reduced in a concentration dependent manner | peptide concentration with complete competition (Pin1 and its WW-domain; [4]): 250 to 500 µM | peptide concentration with significant competition (Pin1 and its WW-domain; [4]): 50 µM

Further lines, with some results ahead:

Binding (OD@405 nm), tau peptides (Pin1): 0.00 OD@405 nm
Substance: DAGLKESPLQTPTE (DAGLKE[pS]PLQTPTE) [pS-46]

Binding (OD@405 nm), tau peptides (Pin1): 0.08 OD@405 nm
Substance: GYSSPGSPGTPGSR (also: phosphoserine, place not given here) [pS-202]

Binding (OD@405 nm), Amyloid Precursor Protein Peptide (Pin1): 1.81 OD@405 nm
Substance: KEVDAAVTPEERHLS [pT-668] (KEVDAAV[pT]PEERHLS)

Binding (OD@405 nm), tau peptides (Pin1): 0.02 OD@405 nm
Substance: PRHLSNVSSTGSIDMV [pS-412] (PRHLSNV[pS]STGSIDMV)

Binding (OD@405 nm), tau peptides (Pin1): 0.00 OD@405 nm
Substance: PRHLSNVSSTGSIDMV [pS-413] (PRHLSNVS[pS]TGSIDMV)

Kd (WFYpSPFLE (Pintide); [2]): 1 µM | Kd (WFYpSPFLE (Pintide); [3]): 12 µM
Substance: Pin1^S18E: Pin1 with Ser-18 mutated to Glu
Phosphoprotein binding activity [1]: + (binding was detected) | binding to mitotic phosphoproteins / MPM-2 antigens (in words) [1]: did not affect the ability of Pin1 to bind phosphoproteins | PPlase Activity (%) (peptide substrate): 98%

pKd (WFYpSPFLE (Pintide)): 5.30
Substance: Pin1^Y23F: Pin1 mutant, Tyr-23 replaced by Phe
PPlase Activity (%) (peptide substrate): 94%

Binding (OD@405 nm), tau peptides (Pin1): 0.00 OD@405 nm
Substance: SRSRTPSLPTPPT (also: phosphoserine, place not given here) [pS-214]

Binding (OD@405 nm), tau peptides (Pin1): 0.00 OD@405 nm
Substance: TSPRHLSNVSSTG (also: phosphoserine, place not given here) [pS-409]

Binding (OD@405 nm), tau peptides (Pin1): 0.11 OD@405 nm
Substance: VRTPPKSPSSAKSR (also: phosphoserine, place not given here) [pS-235]

competition for phosphoprotein binding (in words) (Pin1 and its WW-domain): not with the nonphosphorylated peptide
Substance: WFYSPRLKK (not fully specified) [C-Pintide, nonphosphorylated counterpart of Pintide, control, reference compound]
